Results: PubChem BioAssay AID248 (DTP/NCI, 2004)
“And” between values parts separate entries of the source, which are not always exact repeats. Equal values may be shown once. Toxic doses and inconclusive results are not listed. No stated cut-off is given here; in the data, active means T/C of 150% or more; inactive means T/C below 125%.

System: L1210 leukemia ip in BDF1 mice, survival T/C
Test: NCI In Vivo Anticancer Drug Screen. Data for tumor model L1210 Leukemia (intraperitoneal) in B6D2F1 (BDF1) mice
Settings: endpoint: mean survival time, higher = longer survival
How it was run: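 Mice bearing the transplanted tumor received compound or vehicle. Survival of the treated group was divided by that of the vehicle-treated control group to give the ratio.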

[1] = dose: 100.0 mg/kg/injection, schedule: Q01DX001 (ip), vehicle: carboxymethylcellulose (CMC)
[2] = dose: 100.0 mg/kg/injection, schedule: Q01DX009 (ip), vehicle: saline with Tween-80
[3] = dose: 200.0 mg/kg/injection, schedule: Q01DX001 (ip), vehicle: carboxymethylcellulose (CMC)
[4] = dose: 200.0 mg/kg/injection, schedule: Q01DX009 (ip), vehicle: saline with Tween-80
[5] = dose: 400.0 mg/kg/injection, schedule: Q01DX001 (ip), vehicle: carboxymethylcellulose (CMC)
[6] = dose: 400.0 mg/kg/injection, schedule: Q01DX009 (ip), vehicle: saline with Tween-80
[7] = dose: 100.0 mg/kg/injection, schedule: Q04DX003 (ip), vehicle: saline with Tween-80
[8] = dose: 200.0 mg/kg/injection, schedule: Q04DX003 (ip), vehicle: saline with Tween-80
[9] = dose: 12.5 mg/kg/injection, schedule: Q01DX009 (ip), vehicle: saline with Tween-80
[10] = dose: 25.0 mg/kg/injection, schedule: Q01DX009 (ip), vehicle: saline with Tween-80
[11] = dose: 50.0 mg/kg/injection, schedule: Q01DX009 (ip), vehicle: saline with Tween-80
[12] = dose: 100.0 mg/kg/injection, schedule: Q01DX009 (ip), vehicle: Klucel (hydroxypropylcellulose) (HPC)
[13] = dose: 100.0 mg/kg/injection, schedule: Q04DX003 (ip), vehicle: Klucel (hydroxypropylcellulose) (HPC)
[14] = dose: 200.0 mg/kg/injection, schedule: Q01DX009 (ip), vehicle: Klucel (hydroxypropylcellulose) (HPC)
[15] = dose: 100.0 mg/kg/injection, schedule: Q04DX002 (ip), vehicle: Klucel (hydroxypropylcellulose) (HPC)
[16] = dose: 200.0 mg/kg/injection, schedule: Q04DX002 (ip), vehicle: Klucel (hydroxypropylcellulose) (HPC)
[17] = dose: 400.0 mg/kg/injection, schedule: Q04DX002 (ip), vehicle: Klucel (hydroxypropylcellulose) (HPC)
[18] = dose: 50.0 mg/kg/injection, schedule: Q01DX001 (ip), vehicle: carboxymethylcellulose (CMC)
[19] = dose: 25.0 mg/kg/injection, schedule: Q04DX003 (ip), vehicle: Klucel (hydroxypropylcellulose) (HPC)
[20] = dose: 50.0 mg/kg/injection, schedule: Q04DX003 (ip), vehicle: Klucel (hydroxypropylcellulose) (HPC)
[21] = dose: 400.0 mg/kg/injection, schedule: Q01DX009 (ip), vehicle: Klucel (hydroxypropylcellulose) (HPC)
[22] = dose: 100.0 mg/kg/injection, schedule: Q04DX003 (ip), vehicle: saline
[23] = dose: 200.0 mg/kg/injection, schedule: Q04DX003 (ip), vehicle: saline

Measured: T/C

CCCCCCCCCCCCCCCCSSCCCCCCCCCCCCCCCC
inactive: [1] 93 % of control | [2] 92 % of control | [3] 95 % of control | [4] 95 % of control | [5] 95 % of control | [6] 87 % of control

O=C(O)C1=C(C(=O)O)C2CCC1C2
inactive: [7] 100 % of control | [8] 88 % of control

COc1cc2c3cc1Oc1c(OC)c(OC)cc4c1C(Cc1ccc(OC(C)=O)c(c1)Oc1ccc(cc1)CC3N(C)CC2)N(C)CC4 (centres undefined)
inactive: [7] 108 % of control | [8] 101 % of control | dose: 400.0 mg/kg/injection, schedule: Q04DX003 (ip), vehicle: saline with Tween-80 103 % of control

CC(O)CN1CCCCCC1 (centres undefined)
inactive: [9] 103 % of control | [10] 94 % of control | dose: 25.0 mg/kg/injection, schedule: Q04DX003 (ip), vehicle: saline with Tween-80 107 % of control | [11] 93 % of control | dose: 50.0 mg/kg/injection, schedule: Q04DX003 (ip), vehicle: saline with Tween-80 107 % of control | [7] 95 % of control

N=C(N)/C(N)=N\C1=NCCN1
inactive: [12] 101 % of control | [13] 95 % of control | dose: 178.0 mg/kg/injection, schedule: Q04DX003 (ip), vehicle: Klucel (hydroxypropylcellulose) (HPC) 97 % of control | [14] 101 % of control | dose: 200.0 mg/kg/injection, schedule: Q04DX003 (ip), vehicle: Klucel (hydroxypropylcellulose) (HPC) 93 % of control | dose: 266.0 mg/kg/injection, schedule: Q04DX003 (ip), vehicle: Klucel (hydroxypropylcellulose) (HPC) 92 % of control | dose: 400.0 mg/kg/injection, schedule: Q04DX003 (ip), vehicle: Klucel (hydroxypropylcellulose) (HPC) 90 % of control and 92 % of control | dose: 600.0 mg/kg/injection, schedule: Q04DX003 (ip), vehicle: Klucel (hydroxypropylcellulose) (HPC) 93 % of control

CCc1cc2oc(C)c(C)c2c(N=Nc2ccc([N+](=O)[O-])cc2)c1O
inactive: [15] 102 % of control | [16] 96 % of control | [17] 99 % of control

CC(Sc1ccc([N+](=O)[O-])cn1)C(=O)O (centres undefined)
inactive: [18] 107 % of control | [1] 101 % of control | [3] 101 % of control | [5] 109 % of control

O=C(NO)C(=O)NCc1ccccc1
inactive: [1] 90 % of control | [3] 96 % of control | [5] 96 % of control

CN1CCC23CCCCC2C1Cc1ccc(O)cc13 (centres undefined)
inactive: dose: 75.0 mg/kg/injection, schedule: Q01DX001 (ip), vehicle: saline 95 % of control

O=C1N(Cl)C(=O)C(c2ccc(Cl)cc2)(c2ccc(Cl)cc2)N1Cl
inactive: [9] 98 % of control | dose: 25.0 mg/kg/injection, schedule: Q01DX009 (ip), vehicle: Klucel (hydroxypropylcellulose) (HPC) 106 % of control | [10] 96 % of control | [19] 113 % of control | [18] 101 % of control | dose: 50.0 mg/kg/injection, schedule: Q01DX009 (ip), vehicle: Klucel (hydroxypropylcellulose) (HPC) 106 % of control | [11] 102 % of control | [20] 106 % of control | [1] 108 % of control | [12] 98 % of control | dose: 100.0 mg/kg/injection, schedule: Q01DX009 (ip), vehicle: saline sonified 122 % of control | [2] 106 % of control | [13] 108 % of control | [3] 102 % of control | dose: 200.0 mg/kg/injection, schedule: Q01DX009 (ip), vehicle: saline sonified 93 % of control | [4] 106 % of control | [5] 103 % of control

CCOC(=O)C(Cc1c[nH]c2ccccc12)(NC=O)C(=O)OCC
inactive: [12] 91 % of control | [14] 100 % of control | [21] 91 % of control

COc1ccc(Cl)cc1NC(=O)C(Br)C(Br)c1ccccc1 (centres undefined)
inactive: [12] 100 % of control | [14] 97 % of control | [21] 86 % of control

CC(=O)Nc1cc(Cl)ccc1C
inactive: [10] 93 % of control | [11] 90 % of control | dose: 50.0 mg/kg/injection, schedule: Q04DX003 (ip), vehicle: saline 95 % of control | [2] 89 % of control | [22] 97 % of control | [23] 100 % of control

Cc1ccc(N2C=Nc3ccc(C)cc3C2)cc1
inactive: [12] 92 % of control | dose: 100.0 mg/kg/injection, schedule: Q04DX003 (ip), vehicle: other 107 % of control | [14] 104 % of control | dose: 200.0 mg/kg/injection, schedule: Q04DX003 (ip), vehicle: other 90 % of control

O=C1NC23CC=CCC12CCCCCC3 (centres undefined)
inactive: dose: 100.0 mg/kg/injection, schedule: Q04DX002 (ip), vehicle: other 93 % of control | dose: 200.0 mg/kg/injection, schedule: Q04DX002 (ip), vehicle: other 90 % of control | dose: 400.0 mg/kg/injection, schedule: Q04DX002 (ip), vehicle: other 86 % of control

O=[N+]([O-])c1ccc(C=C2C=c3ccccc3=C2)cc1
inactive: dose: 12.5 mg/kg/injection, schedule: Q04DX003 (ip), vehicle: Klucel (hydroxypropylcellulose) (HPC) 94 % of control | [19] 96 % of control | [20] 97 % of control

CC(C)([NH-])CO.CC(C)([NH-])CO.[Cl][Cd][Cl]
inactive: dose: 3.13 mg/kg/injection, schedule: Q01DX009 (ip), vehicle: saline sonified 98 % of control | dose: 5.0 mg/kg/injection, schedule: Q01DX009 (ip), vehicle: saline 96 % of control | dose: 6.25 mg/kg/injection, schedule: Q01DX009 (ip), vehicle: saline sonified 96 % of control | dose: 6.25 mg/kg/injection, schedule: Q04DX003 (ip), vehicle: saline sonified 95 % of control | dose: 10.0 mg/kg/injection, schedule: Q01DX009 (ip), vehicle: saline 100 % of control | dose: 10.0 mg/kg/injection, schedule: Q04DX003 (ip), vehicle: alcohol 93 % of control | dose: 12.5 mg/kg/injection, schedule: Q01DX009 (ip), vehicle: saline sonified 98 % of control | dose: 12.5 mg/kg/injection, schedule: Q04DX003 (ip), vehicle: saline sonified 92 % of control | dose: 20.0 mg/kg/injection, schedule: Q04DX003 (ip), vehicle: alcohol 89 % of control

Cc1cc(C)c(C(=O)c2no[n+]([O-])c2C(=O)c2c(C)cc(C)c(Br)c2C)c(C)c1Br
inactive: [8] 87 % of control

CCOc1ccccc1NC(=O)c1cccc(F)c1
inactive: [2] 101 % of control | [4] 104 % of control | [6] 101 % of control

OCC1(CO)CCCCO1
inactive: [22] 96 % of control | [23] 95 % of control | dose: 400.0 mg/kg/injection, schedule: Q04DX003 (ip), vehicle: saline 101 % of control

COc1ccc(NC(=O)COc2ccc(Cl)cc2Cl)cc1
inactive: [15] 108 % of control | [16] 92 % of control | [17] 94 % of control
